The record followed here is patent publication US8883784B2, “Apoptosis-inducing agents for the treatment of cancer and immune and autoimmune diseases” (AbbVie Inc., priority 2012, dated 2014).

The test system of experiment [1] is mouse FL5.12 cells transfected with Bcl-XL. Description: FL5.12 cellular assay (cell viability, CellTiter-Glo). The format is cell-based. The settings on record: IL-3-depleted, 3% FBS assay media, 24 hours, read-out: FL5.12 Bcl-xL, -IL3, EC 50. The method, then:
The efficacy of the compounds of Formula (I) can also be determined in cell-based killing assays using a variety of cell lines and mouse tumor models. For example, their activity on cell viability can be assessed on a panel of cultured tumorigenic and non-tumorigenic cell lines, as well as primary mouse or human cell populations. In one exemplary set of conditions, mouse FL5.12 cells transfected with Bcl-XL were cultured under standard conditions in RPMI with 2 mM glutamine, 1% 100 mM sodium pyruvate, 2% 1 M HEPES, 4 μL/L of β-mercaptoethanol, 1% penicillinstreptomycin, 10% FBS, and 10% WEHI-3B conditioned media (for IL-3). For assaying the compound activity, the cells were exchanged into an IL-3-depleted deprivation media, which was identical to the growth media except for the absence of FBS and WEHI-3B conditional media, for 2 days. Then the cells were exchanged to 3% FBS assay media (RPMI with 2 mM glutamine, 1% 100 mM sodium pyruvate, 2% 1 M HEPES, 4 μL/L of β-mercaptoethanol, 1% penicillinstreptomycin, 3% FBS). Compounds in series dilutions were added, and the cells were cultured for 24 hours. Cell viability was assayed using the CellTiter-Glo assay (Promega Corp., Madison, Wis.) according to the manufacturer instructions. Individual determinations were the result of duplicate values.

For experiment [2], the target named is GST-Bcl-xL (Homo sapiens (Human), UniProt Q07817). Description: TR-FRET binding assay, competition with F-Bak for Bcl-xL. The settings on record: competition with F-Bak probe, GST-Bcl-xL 1 nM. The method, then: Determination of the utility of compounds having Formula (I) as binders to and inhibitors of anti-apoptotic Bcl-xL proteins was performed using the Time Resolved-Fluorescence Resonance Energy Transfer (TR-FRET) Assay. Tb-anti-GST antibody was purchased from Invitrogen (Catalog No. PV4216).
The measurement of competition of compounds of Formula (I) with F-Bak for a Bcl-2 family protein (Bcl-xL) binding site using a Time Resolved Fluorescence Resonance Energy Transfer (TR-FRET) binding assay:
Test compounds were serially diluted in DMSO starting at 50 μM (2× starting concentration; 10% DMSO) and 10 μL transferred into a 384-well plate.
The samples are then mixed on a shaker for 1 minute then incubated for an additional 2 hours at room temperature. For each assay plate, a probe/antibody and protein/antibody/probe mixture were included as a negative and a positive control, respectively. Fluorescence was measured on the ENVISION plate reader (Perkin Elmer) using a 340/35 nm excitation filter and 520/525 (F-Bak) and 495/510 nm (Tb-labeled anti-his antibody) emission filters. Dissociation constants (Ki) were determined using Wang's equation (Wang, Z. X. An 20 exact mathematical expression for describing competitive binding of two different ligands to protein molecule. FEBS Lett. 1995 360:111-114). The TR-FRET assay can be performed in the presence of varying concentrations of human serum (HS) or fetal bovine serum (FBS).

SMILES strings stand for the structures. Where only a bound is given, the exact number is not on record here.

Chain of GST-Bcl-xL (Q07817 whole entry): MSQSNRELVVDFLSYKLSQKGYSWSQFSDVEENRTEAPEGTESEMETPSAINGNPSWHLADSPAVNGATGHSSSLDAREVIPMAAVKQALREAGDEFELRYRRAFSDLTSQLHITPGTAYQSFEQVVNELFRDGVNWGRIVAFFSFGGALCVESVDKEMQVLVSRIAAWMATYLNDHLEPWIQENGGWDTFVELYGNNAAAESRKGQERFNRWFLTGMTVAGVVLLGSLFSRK

Turning to `CN(C)CC[C@H](CSc1ccccc1)Nc1ccc(S(=O)(=O)NC(=O)c2csc(N3CCc4cccc(C(=O)Nc5nc6ccccc6s5)c4C3)n2)cc1[N+](=O)[O-]` [Example 1, N-(1,3-benzothiazol-2-yl)-2-(4-{[(4-{[(2R)-4-(dimethylamino)-1-(phenylsulfanyl)butan-2-yl]amino}-3-nitrophenyl)sulfonyl]carbamoyl}-1,3-thiazol-2-yl)-1,2,3,4-tetrahydroisoquinoline-8-carboxamide], the EC50 in experiment [1] worked out at 56 nM. The compound also gave a Ki in experiment [2] of 0.1 nM. Take `O=C(NS(=O)(=O)c1ccc(N[C@H](CCN2CCOCC2)CSc2ccccc2)c(S(=O)(=O)C(F)(F)F)c1)c1csc(N2CCc3cccc(C(=O)Nc4nc5ccccc5s4)c3C2)n1` [Example 2, N-(1,3-benzothiazol-2-yl)-2-(4-{[(4-{[(2R)-4-(morpholin-4-yl)-1-(phenylsulfanyl)butan-2-yl]amino}-3-[(trifluoromethyl)sulfonyl]phenyl)sulfonyl]carbamoyl}-1,3-thiazol-2-yl)-1,2,3,4-tetrahydroisoquinoline-8-carboxamide]: the EC50 in experiment [1] stood at 12 nM. In experiment [2], this compound returned a Ki of 0.1 nM.

As for `O=C(NS(=O)(=O)c1ccc(N[C@H](CCN2CCOCC2)CSc2ccccc2)c(S(=O)(=O)C(F)(F)F)c1)c1cccc(N2CCc3cccc(C(=O)Nc4nc5ccccc5s4)c3C2)n1` [Example 3, N-(1,3-benzothiazol-2-yl)-2-(6-{[(4-{[(2R)-4-(morpholin-4-yl)-1-(phenylsulfanyl)butan-2-yl]amino}-3-[(trifluoromethyl)sulfonyl]phenyl)sulfonyl]carbamoyl}pyridin-2-yl)-1,2,3,4-tetrahydroisoquinoline-8-carboxamide], in experiment [1], the EC50 was > 1000 nM. In experiment [2], this compound showed a Ki of 12 nM. The matching figures for `CN(C)CCCNc1ccc(S(=O)(=O)NC(=O)c2nc(N3CCc4cccc(C(=O)Nc5nc6ccccc6s5)c4C3)ccc2CCCc2ccccc2)cc1[N+](=O)[O-]` [Example 4, N-(1,3-benzothiazol-2-yl)-2-[6-{[(4-{[3-(dimethylamino)propyl]amino}-3-nitrophenyl)sulfonyl]carbamoyl}-5-(3-phenylpropyl)pyridin-2-yl]-1,2,3,4-tetrahydroisoquinoline-8-carboxamide]: > 1000 nM and 9 nM. As to `CN(C)CCCNc1ccc(S(=O)(=O)NC(=O)c2nc(N3CCc4cccc(C(=O)Nc5nc6ccccc6s5)c4C3)ccc2CCCc2ccccc2)cc1S(=O)(=O)C(F)(F)F` [Example 5, N-(1,3-benzothiazol-2-yl)-2-[6-{[(4-{[3-(dimethylamino)propyl]amino}-3-[(trifluoromethyl)sulfonyl]phenyl)sulfonyl]carbamoyl}-5-(3-phenylpropyl)pyridin-2-yl]-1,2,3,4-tetrahydroisoquinoline-8-carboxamide], in experiment [1], the EC50 is > 1000 nM. Also, in experiment [2], the Ki turned out to be 48 nM.

As to `CN(C)CCCNc1ccc(S(=O)(=O)NC(=O)c2nc(N3CCc4cccc(C(=O)Nc5nc6ccccc6s5)c4C3)ccc2CCc2ccccc2)cc1[N+](=O)[O-]` [Example 6, N-(1,3-benzothiazol-2-yl)-2-[6-{[(4-{[3-(dimethylamino)propyl]amino}-3-nitrophenyl)sulfonyl]carbamoyl}-5-(2-phenylethyl)pyridin-2-yl]-1,2,3,4-tetrahydroisoquinoline-8-carboxamide], the EC50 in experiment [1] is > 1000 nM. The compound also gave a Ki in experiment [2] of 17 nM. For the compound `CN(C)CCCNc1ccc(S(=O)(=O)NC(=O)c2csc(N3CCc4cccc(C(=O)Nc5nc6ccccc6s5)c4C3)n2)cc1S(=O)(=O)C(F)(F)F` [Example 7, N-(1,3-benzothiazol-2-yl)-2-(4-{[(4-{[3-(dimethylamino)propyl]amino}-3-[(trifluoromethyl)sulfonyl]phenyl)sulfonyl]carbamoyl}-1,3-thiazol-2-yl)-1,2,3,4-tetrahydroisoquinoline-8-carboxamide], in experiment [1], the EC50 was > 1000 nM. For the same compound, the inhibition constant (Ki) in experiment [2] amounted to 1.7 nM. For the compound `CN(C)CCCNc1ccc(S(=O)(=O)NC(=O)c2nc(N3CCc4cccc(C(=O)Nc5nc6ccccc6s5)c4C3)sc2Cc2ccccc2)cc1S(=O)(=O)C(F)(F)F` [Example 8, N-(1,3-benzothiazol-2-yl)-2-(5-benzyl-4-{[(4-{[3-(dimethylamino)propyl]amino}-3-[(trifluoromethyl)sulfonyl]phenyl)sulfonyl]carbamoyl}-1,3-thiazol-2-yl)-1,2,3,4-tetrahydroisoquinoline-8-carboxamide], the EC50 in experiment [1] was > 1000 nM. In addition, the Ki in experiment [2] was determined as 11 nM. Turning to `CN(C)CCCNc1ccc(S(=O)(=O)NC(=O)c2nc(N3CCc4cccc(C(=O)Nc5nc6ccccc6s5)c4C3)sc2Cc2ccccc2)cc1[N+](=O)[O-]` [Example 9, N-(1,3-benzothiazol-2-yl)-2-(5-benzyl-4-{[(4-{[3-(dimethylamino)propyl]amino}-3-nitrophenyl)sulfonyl]carbamoyl}-1,3-thiazol-2-yl)-1,2,3,4-tetrahydroisoquinoline-8-carboxamide], the EC50 in experiment [1] was > 1000 nM. In addition, affinity in experiment [2] was put at a Ki of 41 nM. The compound `O=C(NS(=O)(=O)c1ccc(N[C@H](CCN2CCOCC2)CSc2ccccc2)c([N+](=O)[O-])c1)c1csc(N2CCc3cccc(C(=O)Nc4nc5ccccc5s4)c3C2)n1` [Example 10, N-(1,3-benzothiazol-2-yl)-2-(4-{[(4-{[(2R)-4-(morpholin-4-yl)-1-(phenylsulfanyl)butan-2-yl]amino}-3-nitrophenyl)sulfonyl]carbamoyl}-1,3-thiazol-2-yl)-1,2,3,4-tetrahydroisoquinoline-8-carboxamide] came in with a Ki in experiment [2] of 0.14 nM. Regarding `CN(C)CCCNc1ccc(S(=O)(=O)NC(=O)c2nc(N3CCc4cccc(C(=O)Nc5nc6ccccc6s5)c4C3)sc2CCc2ccccc2)cc1S(=O)(=O)C(F)(F)F` [Example 11, N-(1,3-benzothiazol-2-yl)-2-[4-{[(4-{[3-(dimethylamino)propyl]amino}-3-[(trifluoromethyl)sulfonyl]phenyl)sulfonyl]carbamoyl}-5-(2-phenylethyl)-1,3-thiazol-2-yl]-1,2,3,4-tetrahydroisoquinoline-8-carboxamide], the EC50 in experiment [1] worked out at 22 nM. The inhibitory constant (Ki) in experiment [2] amounted to 0.06 nM. For the compound `CN(C)CC[C@H](CSc1ccccc1)Nc1ccc(S(=O)(=O)NC(=O)c2csc(N3CCc4cccc(C(=O)Nc5nc6ccccc6s5)c4C3)n2)cc1S(=O)(=O)C(F)(F)F` [Example 12, N-(1,3-benzothiazol-2-yl)-2-(4-{[(4-{[(2R)-4-(dimethylamino)-1-(phenylsulfanyl)butan-2-yl]amino}-3-[(trifluoromethyl)sulfonyl]phenyl)sulfonyl]carbamoyl}-1,3-thiazol-2-yl)-1,2,3,4-tetrahydroisoquinoline-8-carboxamide], the EC50 in experiment [1] was determined as 3 nM. The compound further returned a Ki in experiment [2] of 0.04 nM.

With `CN(C)CCCNc1ccc(S(=O)(=O)NC(=O)c2nc(N3CCc4cccc(C(=O)Nc5nc6ccccc6s5)c4C3)sc2CCc2ccccc2)cc1[N+](=O)[O-]` [Example 13, N-(1,3-benzothiazol-2-yl)-2-[4-{[(4-{[3-(dimethylamino)propyl]amino}-3-nitrophenyl)sulfonyl]carbamoyl}-5-(2-phenylethyl)-1,3-thiazol-2-yl]-1,2,3,4-tetrahydroisoquinoline-8-carboxamide], the EC50 in experiment [1] stood at 94 nM. Also, the Ki in experiment [2] was 0.8 nM.

Take `O=C(NS(=O)(=O)c1ccc(N[C@H](CCO)CSc2ccccc2)c(S(=O)(=O)C(F)(F)F)c1)c1csc(N2CCc3cccc(C(=O)Nc4nc5ccccc5s4)c3C2)n1` [Example 14, N-(1,3-benzothiazol-2-yl)-2-(4-{[(4-{[(2R)-4-hydroxy-1-(phenylsulfanyl)butan-2-yl]amino}-3-[(trifluoromethyl)sulfonyl]phenyl)sulfonyl]carbamoyl}-1,3-thiazol-2-yl)-1,2,3,4-tetrahydroisoquinoline-8-carboxamide]: in experiment [2], the inhibition constant Ki amounted to 0.2 nM. `CN(C)CCCNc1ccc(S(=O)(=O)NC(=O)c2nc(N3CCc4cccc(C(=O)Nc5nc6ccccc6s5)c4C3)sc2CCCc2ccccc2)cc1[N+](=O)[O-]` [Example 15, N-(1,3-benzothiazol-2-yl)-2-[4-{[(4-{[3-(dimethylamino)propyl]amino}-3-nitrophenyl)sulfonyl]carbamoyl}-5-(3-phenylpropyl)-1,3-thiazol-2-yl]-1,2,3,4-tetrahydroisoquinoline-8-carboxamide] returned an inhibitory constant (Ki) in experiment [2] of 5 nM.
